Like-named read-outs stand apart in the source and are kept apart here.
Tests used:
MV4;11 cells = experiment: MV4;11 in vitro inhibition of proliferation assay (CellTiter-Glo, 72 hours); type: cell-based; details: IC50 class, read-out: Inhibitory activity of cell proliferation MV4;11
Description: Biological Test Example 2: MV4;11 In Vitro Inhibition of Proliferation Assay
The MV4;11 cell lines were purchased from the cell bank of the Chinese Academy of Sciences, IMDM medium (Gibco, catalog number 12440), fetal bovine serum (Gibco, catalog number 10099141C), penicillin-streptomycin antibiotics (Gibco, catalog number 15140122), DMSO (Sigma, catalog number D2650), Celltiter-Glo kit (CTG) (Promega, catalog number G7573), 384-well clear flat-bottom black cell culture plate (Corning, catalog number 3764), D300e digital dispenser (Tecan, catalog number D300e), SpectraMax i3x microplate reader (MOLECULAR DEVICES, catalog number i3x)
MV4;11 cell was cultivated in IMDM, 10% fetal bovine serum, 1% penicillin-streptomycin antibiotics, and cell density was kept less than 1.0*10E6 cells per ml to ensure that it was always in logarithmic growth phase. Cell viability was greater than 95%.
The compounds to be tested was diluted by 3 times from 10 uM with DMSO to 9 concentrations. 60 nl diluted compound was added to the cell culture plate and three duplicates were set up.
The prepared MV4;11 cell suspension was added to the 384-well plate, and 20 microliters of cell suspension was added per well, i.e., each well contained 2000 MV4;11 cells, of which the final concentration of DMSO was 0.3%. The cell culture plate was placed in 37° C. and incubated in a 5% carbon dioxide incubator for 72 hours.
20 μL of Promega CellTiter-Glo reagent was added to per well, and the plate was incubated at room temperature for 10 minutes when the luminescence signals were stable. SpectraMax i3x microplate reader was used to read signals.
The original data was converted into inhibition rate, and the IC50 value (half inhibition concentration) of the compound was determined by fitting the nonlinear four-parameter curve.

FLT3 = molecular target: T1, FLT3 (Homo sapiens, UniProt P36888); experiment: FLT3 kinase in vitro inhibitory activity experiment (Caliper mobility shift, conversion rate); type: biochemical; details: IC50 class, read-out: Enzyme activity FLT3
T1 construct: purchased Carna 08-145
T1 sequence (P36888 27-993): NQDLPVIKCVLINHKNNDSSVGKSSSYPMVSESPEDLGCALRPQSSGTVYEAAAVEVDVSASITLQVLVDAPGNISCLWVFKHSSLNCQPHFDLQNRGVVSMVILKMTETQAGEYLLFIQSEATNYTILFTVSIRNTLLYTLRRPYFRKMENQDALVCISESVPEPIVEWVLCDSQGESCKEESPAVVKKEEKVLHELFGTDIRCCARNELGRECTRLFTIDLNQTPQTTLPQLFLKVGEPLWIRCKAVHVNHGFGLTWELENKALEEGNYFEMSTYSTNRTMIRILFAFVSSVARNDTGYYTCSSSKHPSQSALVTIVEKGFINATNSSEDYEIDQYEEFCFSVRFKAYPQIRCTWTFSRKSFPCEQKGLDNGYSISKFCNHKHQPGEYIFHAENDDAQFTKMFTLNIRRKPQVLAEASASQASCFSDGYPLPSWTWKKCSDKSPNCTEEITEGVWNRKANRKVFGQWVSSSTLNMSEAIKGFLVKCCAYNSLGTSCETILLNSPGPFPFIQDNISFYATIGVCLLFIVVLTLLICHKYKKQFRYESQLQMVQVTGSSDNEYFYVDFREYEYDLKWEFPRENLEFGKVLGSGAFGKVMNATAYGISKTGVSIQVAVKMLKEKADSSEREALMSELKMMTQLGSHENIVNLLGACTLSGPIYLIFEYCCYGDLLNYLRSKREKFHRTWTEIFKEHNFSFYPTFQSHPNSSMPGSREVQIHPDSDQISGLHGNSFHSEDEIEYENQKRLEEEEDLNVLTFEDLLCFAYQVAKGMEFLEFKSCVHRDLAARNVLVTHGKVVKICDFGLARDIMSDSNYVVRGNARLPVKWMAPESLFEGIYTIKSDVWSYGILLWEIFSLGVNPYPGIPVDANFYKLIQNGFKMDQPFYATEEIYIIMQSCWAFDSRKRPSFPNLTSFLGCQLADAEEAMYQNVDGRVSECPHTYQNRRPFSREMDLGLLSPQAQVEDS
Method: Biological Test Example 1: FLT3 Kinase In Vitro Inhibitory Activity Experiment
Centrifuge (manufacturer: Eppendorf, model: 5430), microplate reader (manufacturer: Perkin Elmer, model: Caliper EZ Reader II), Echo 550 (manufacturer: Labcyte, model: Echo 550)
1. Kinase Reaction Process
• (1) 1×Kinase buffer was prepared. • (2) Preparation of the serial compound dilutions: the initial stock (the concentration of the tested compound was 1 μM) was diluted by 3-fold into 10 concentrations, and was single-well detected. The compounds were series diluted to solutions of 10 different concentration (100-folds final concentration) in 384-well plates. 250 nl of solution was transferred to each well of 384-well plate by Echo550. 100% DMSO (250 nl) was added to negative control wells and positive control wells respectively. • (3) Kinase solution (2.5 times final concentration) was prepared with 1×Kinase buffer. • (4) 10 μL of kinase solution (2.5 times final concentration) was added to compound wells and positive control wells respectively: 1×Kinase buffer (10 μL) was added to the negative control wells. • (5) The solution was centrifuged at 1000 rpm for 30 seconds, shaked and mixed, and incubated at room temperature for 10 minutes. • (6) The mixed solution of ATP and Kinase substrate 2 (25/15 times final concentration) was prepared with 1×Kinase buffer. • (7) 15 μL of mixed solution ATP and Kinase substrate 2 (25/15 times final concentration) was added to initiated the reaction. • (8) 384 well plate was centrifuged at 1000 rpm for 30 seconds, shaked and mixed, then incubated at room temperature for 30 minutes. • (9) Stop solution (30 μL) was added to stop kinase reaction, and the solution was centrifuged at 1000 rpm for 30 seconds, shaked and mixed. • (10) The conversion rate was read with Caliper EZ Reader II. 2. Data Analysis Formula for Calculation
Wherein: Conversion %_sample is the reading of the sample conversion; Conversion %_min: negative control well.

| IC50 (FLT3) | IC50 (MV4;11 cells; Homo sapiens, MV4-11, 72 h) | Structure (SMILES) | IC50 (MV4;11 cells) |
| --- | --- | --- | --- |
| ≤ 10 nM | ≤ 10 nM | CCc1nc2c(N)ncc(-c3cnn(C4CCC(C)(O)CC4)c3)c2nc1N[C@@H]1CC[C@H](O)C1 (single isomer, unassigned) [Compound 284] |  |
| ≤ 10 nM |  | CCc1nc2c(N)ncc(-c3cnn(C4CCC(C)(O)CC4)c3)c2nc1N[C@@H]1CC[C@H](O)C1 (single isomer, unassigned) [Compound 285] | ≤ 10 nM |
| > 500 nM | > 500 nM | CCc1nc2c(N)nccc2nc1NC1CCOCC1 [Compound 1] |  |
| 100 to 500 nM | > 500 nM | CCc1nc2c(N)ncc(Br)c2nc1NC1CCOCC1 [Compound 2, 8-Bromo-3-ethyl-N2-(tetrahydro-2H-pyran-4-yl)pyridino[3,4-b]pyrazine-2,5-diamine] |  |
| 10 to 100 nM |  | CCc1nc2c(N)ncc(-c3ccc(N4CCC(N5CCN(C)CC5)CC4)c(S(C)(=O)=O)c3)c2nc1NC1CCOCC1 [Compound 18, 3-ethyl-8-(4-(4-(4-methylpiperazine-1-yl)piperidine-1-yl)-3-(methylsulfyl)phenyl)-N2-(tetrahydro-2H-pyran-4-yl) pyridino [3,4-b] pyrazine-2,5-diamine] |  |
| ≤ 10 nM |  | CCc1nc2c(N)ncc(-c3ccc(N4CCC(N5CCN(C)CC5)CC4)c(C(C)(C)O)c3)c2nc1NC1CCOCC1 [Compound 19, 2-(5-(5-amino-3-ethyl-2-((tetrahydro-2H-pyran-4-yl)amino)pyridino[3,4-b]pyrazine-8-yl)-2-(4-(4-methylpiperazine-1-yl)piperidine-1-yl)phenyl)propan-2-ol] |  |
| 10 to 100 nM |  | COc1cc(-c2cnc(N)c3ncc(NC4CCOCC4)nc23)ccc1N1CCC(N2CCN(C)CC2)CC1 [Compound 25] |  |
| 10 to 100 nM |  | CCc1nc2c(N)ncc(-c3ccn(C)c3)c2nc1NC1CCOCC1 [Compound 56] |  |
| 10 to 100 nM |  | CCc1nc2c(N)ncc(-c3cnn(C)c3)c2nc1NC1CCOCC1 [Compound 57] |  |
| 10 to 100 nM |  | CCc1nc2c(N)ncc(-c3ccc4c(c3)OCCN4C)c2nc1NC1CCOCC1 [Compound 61] |  |
| 10 to 100 nM |  | CCc1nc2c(N)ncc(-c3ccc(N4CCC(N5CCN(C)CC5)CC4)c(OC)c3)c2nc1NC [Compound 76] |  |
|  | 10 to 100 nM | CCc1nc2c(N)ncc(-c3ccc(N4CCC(N5CCN(C)CC5)CC4)c(OC)c3)c2nc1NC1CCC(O)CC1 (stereo not drawn) [Compound 82] |  |
| ≤ 10 nM |  | CCc1nc2c(N)ncc(-c3ccc(N4CCC(N5CCN(C)CC5)CC4)c(OC)c3)c2nc1N[C@H]1CC[C@@H](O)CC1 [Compound 82] |  |
| ≤ 10 nM |  | CCc1nc2c(N)ncc(-c3cnn(CC4CCN(C)CC4)c3)c2nc1NC1CCOCC1 [Compound 137] |  |
| 100 to 500 nM |  | CCc1nc2c(N)ncc(Br)c2nc1N[C@@H]1CC[C@H](O)C1 [Compound 151, (1S, 3R)-3-((5-amino-8-bromo-3-ethylpyridino[3,4-b]pyrazine-2-yl)amino)cyclopentan-1-ol] |  |
| ≤ 10 nM |  | CCc1nc2c(N)ncc(-c3cnn(CC4CCNCC4)c3)c2nc1NC1CCOCC1 [Compound 154] |  |
| ≤ 10 nM |  | CCc1nc2c(N)ncc(-c3cnn(C4CCN(c5cc(F)cc(F)c5)CC4)c3)c2nc1N[C@@H]1CC[C@H](O)C1 [Compound 173] |  |
|  | ≤ 10 nM | CCc1nc2c(N)ncc(-c3cnn(C4CCOCC4)c3)c2nc1N[C@@H]1CC[C@H](O)C1 [Compound 191] |  |
| ≤ 10 nM |  | CCc1nc2c(N)ncc(-c3cnn(C4CCN(CCO)CC4)c3)c2nc1N[C@H]1CCOC1 [Compound 229] |  |
| ≤ 10 nM |  | CCc1nc2c(N)ncc(-c3cnn(C(C)C)c3)c2nc1N[C@H]1CCOC1 [Compound 230] |  |
| ≤ 10 nM |  | CCc1nc2c(N)ncc(-c3cnn(C4COC4)c3)c2nc1N[C@H]1CCOC1 [Compound 231] |  |
| ≤ 10 nM |  | CCc1nc2c(N)ncc(-c3cnn(C4CCN(C5CCN(C)CC5)CC4)c3)c2nc1N[C@@H]1CCOC1 [Compound 250] |  |
| ≤ 10 nM |  | CCc1nc2c(N)ncc(-c3ccc(N4CCC(N5CCN(C)CC5)CC4)c(OC)c3)c2nc1N[C@H]1CCC[C@@H](O)C1 [Compound 255] |  |
| ≤ 10 nM |  | CCc1nc2c(N)ncc(-c3ccc(N4CCC(N5CCN(C)CC5)CC4)c(OC)c3)c2nc1N[C@H]1CCC[C@H](O)C1 [Compound 256] |  |
| ≤ 10 nM |  | CCc1nc2c(N)ncc(-c3cnn(C4CCNCC4)c3)c2nc1N[C@@H]1CCOC1 [Compound 258] |  |
| ≤ 10 nM |  | CCc1nc2c(N)ncc(-c3cnn(C4CCNCC4)c3)c2nc1N[C@H]1CCOC1 [Compound 259, (S)-3-ethyl-8-(1-(piperidin-4-yl)-1H-pyrazol-4-yl)-N2-(tetrahydrofuran-3-yl)pyridino[3,4-b]pyrazin-2,5-diamine] |  |
| 10 to 100 nM |  | CCc1nc2c(Nc3cccnc3)ncc(-c3cnn(C4CCNCC4)c3)c2nc1N[C@@H]1CC[C@H](O)C1 [Compound 262] |  |
| > 500 nM |  | CCc1nc2c(N)nccc2nc1N[C@@H]1CC[C@H](O)C1 [Compound 263, (1S,3R)-3-((5-amino-3-ethylpyridino[3,4-b]pyrazine-2-yl)amino)cyclopentan-1-ol] |  |
| ≤ 10 nM |  | CCc1nc2c(N)ncc(-c3cnn(C4CCN(C)CC4)c3)c2nc1N(C)CC(C)(C)O [Compound 264] |  |
|  | ≤ 10 nM | CCc1nc2c(N)ncc(-c3cnn(-c4ccc(C#N)cn4)c3)c2nc1N[C@@H]1CC[C@H](O)C1 [Compound 300] |  |

| Structure (SMILES) | IC50 (FLT3) | IC50 (MV4;11 cells; Homo sapiens, MV4-11, 72 h) | IC50 (MV4;11 cells) |
| --- | --- | --- | --- |
| CCc1nc2c(N)ncc(-c3cnn(C4C[C@H]5CC[C@@H](C4)N5)c3)c2nc1N[C@@H]1CC[C@H](O)C1 (single isomer, unassigned) [Compound 162] | ≤ 10 nM |  | 100 to 500 nM |
| CCc1nc2c(N)ncc(-c3cnn(C4C[C@H]5CC[C@@H](C4)N5)c3)c2nc1N[C@@H]1CC[C@H](O)C1 (single isomer, unassigned) [Compound 163] | ≤ 10 nM |  | 10 to 100 nM |
| CCc1nc2c(N)ncc(-c3cnn(C4C[C@H]5CC[C@@H](C4)N5C)c3)c2nc1N[C@@H]1CC[C@H](O)C1 (single isomer, unassigned) [Compound 164] | ≤ 10 nM | 10 to 100 nM |  |
| CCc1nc2c(N)ncc(-c3cnn(C4C[C@H]5CC[C@@H](C4)N5C)c3)c2nc1N[C@@H]1CC[C@H](O)C1 (single isomer, unassigned) [Compound 165] | ≤ 10 nM |  | ≤ 10 nM |

— patent US12673947B2 (Cytosinlab Therapeutics Co., Ltd., priority 2020, dated 2026)
